# Measured values: the NIST ThermoML archive (doi:10.1021/acs.jced.7b00393)
# ± gives the expanded uncertainty stated by the source.
# Tests used:
# [1] = 298.2 K; 101.33 kPa; Liquid; Vibrating tube method
# [2] = refractive index (Na D-line) (dimensionless); conditions: 298.2 K; 101.33 kPa; Liquid; Standard Abbe refractometry
# [3] = refractive index (Na D-line) (dimensionless); wn = mass fraction of the nth substance listed; conditions: 81.5 kPa, Liquid, Standard Abbe refractometry
mass density [1],refractive index [2],"refractive index ([3]; 293.2 K, w2 = 0.0006)","refractive index ([3]; 293.2 K, w2 = 0.9998)","refractive index ([3]; 298.2 K, w2 = 0.0009)","refractive index ([3]; 298.2 K, w2 = 0.9996)","refractive index ([3]; 308.2 K, w2 = 0.0011)","refractive index ([3]; 308.2 K, w2 = 0.9994)",Compound
857.54 ± 1.7 kg/m3,1.49005 ± 0.0014,,,,,,,CC(C)c1ccccc1 [isopropylbenzene]
,,1.4915 ± 0.0014,1.3335 ± 0.0014,1.49001 ± 0.0014,1.333 ± 0.0014,1.4859 ± 0.0014,1.33195 ± 0.0014,CC(C)c1ccccc1 [isopropylbenzene] + O
,1.3325 ± 0.0014,,,,,,,O [water]
